In brackets after ≈: the same amount, converted by molar mass. Where two headings read alike, the source gives them in different places.
Tests used:
[1] = tested on: vancomycin-resistant and vancomycin-susceptible strains of Enterococcus; assay: Broth microdilution MIC against Enterococcus strains (E. faecalis and E. faecium, summary in text); assay type: cell-based; settings: all E. faecalis and E. faecium strains tested, vancomycin-resistant and -sensitive
E. faecalis = assay: Broth microdilution MIC against E. faecalis strains; assay type: cell-based; settings: Enterococcus faecalis, read-out: Minimum inhibitory concentration
Caco-2 monolayer = assay: Caco-2 bidirectional permeability assay; assay type: in vitro ADME, human; settings: Caco-2 bidirectional
Procedure: (§1) The Caco-2 bidirectional permeability assay was conducted as described in previous reports[29],[30],[41],[42]. The Caco-2 cell line is similar to human enterocytes and expresses P-glycoprotein and other relevant metabolic enzymes that affect absorption of orally-administered xenobiotics across the intestinal mucosa[34],[43],[44]. Caco-2 cells were grown in tissue culture flasks, trypsinized (by rinsing cells with phosphate-buffered saline and then treating with trypsin-EDTA for 5–10 minutes at 37 °C with 5% CO2 until cells detached), suspended in Dulbecco’s Modified Eagle Medium with 10% fetal bovine serum, 1% nonessential amino acids and penicillin-streptomycin, and then seeded onto wells of a Millipore 96-well Caco-2 plate. Cells were cultured at 37 °C with 5% CO2 until confluent (approximately three weeks) and media was changed at relevant time points. For Apical to Basolateral (A → B) permeability, the test article was added to the apical (A) compartment and the amount of permeation (Papp, as calculated below) to the basolateral (B) compartment was determined; for Basolateral to Apical (B → A) permeability, the test article was added to the B compartment and the amount of permeation to the A compartment was determined. […] Caco-2 cells were incubated with these buffers for two hours, and the receiver side buffer was removed for analysis by LC/MS/MS. To verify the tight junctions and integrity of Caco-2 cell monolayers, aliquots of the cell buffers were analyzed by fluorescence (Lucifer yellow transport ≤ 2%). Any deviations from control values are reported. Data are expressed as permeability (Papp) = (dQ/dt)/(C0A) where dQ/dt is the rate of permeation, C0 is the initial concentration of test agent, and A is the area of the monolayer.

[2] = Caco-2 bidirectional permeability assay; assay type: in vitro ADME, human; settings: human, Caco-2, two hours
Procedure: as §1

Clostridium difficile = assay: Broth microdilution MIC against Clostridium difficile strains; assay type: cell-based; settings: Clostridioides difficile
Procedure: The broth microdilution assay was utilized following the Clinical and Laboratory Standards Institute (CLSI) guidelines with slight modifications. Briefly, C. difficile strains were grown on anaerobic blood agar plates (Becton Dickinson, BD) and suspended in brain heart infusion supplemented broth (Brain heart infusion medium, BD, supplemented with yeast extract, L-cysteine, Vitamin K1 and Hemin, Sigma) to achieve a bacterial concentration of ~10^5 CFU/ml. The bacterial suspension was seeded in 96-well plates containing drugs/compounds, in duplicate, at the required concentration. Plates were then incubated at 37 °C anaerobically for 48 hours. MICs reported are the lowest concentration of each agent that inhibited the visual growth of bacteria.

human erythrocytes = tested on: human erythrocytes; design: method as in PMID 24479371; settings: concentration at which 50% of human erythrocytes are lysed; cited from earlier work
[3] = tested on: human ileocecal colorectal adenocarcinoma cell line (HRT-18); assay: Cytotoxicity, MTS assay, HRT-18 cells; assay type: cell-based; settings: HRT-18 cells, 32 µg mL^−1, 2 hours, relative to DMSO
Procedure: Briefly, ~2 × 10^4 cells suspended in 100 µL of RPMI-1640 supplemented with 10% horse serum were seeded in a 96-well plate and incubated at 37 °C with 5% CO2. The cells were cultured for 24 hours until reaching ~90% confluency. The cells were further incubated with the aforementioned concentrations of the compounds for 2 hours. Afterwards, culture media were discarded and the cells in each well were washed with PBS and 100 µL of cell culture media were added prior to addition of the assay reagent MTS 3-(4,5-dimethylthiazol-2-yl)-5-(3-carboxymethoxyphenyl)-2-(4-sulfophenyl)-2H-tetrazolium) (Promega). The plates were incubated for 4 hours at 37 °C in a humidified 5% CO2 atmosphere. The absorbance was recorded at 490 nm and the corrected absorbance readings (actual absorbance readings for each treatment subtracted from background absorbance) were taken using a kinetic ELISA microplate reader (SpectraMax i3x, Molecular Devices, Sunnyvale, CA, USA). The quantity of viable cells after treatment with each compound was expressed as a percentage of the control, DMSO. Asterisk (*) denotes a significant difference from the DMSO-treated cells using 2-way analysis of variance (ANOVA) followed by Dunnett’s pairwise comparison.

E. faecium = assay: Broth microdilution MIC against E. faecium strains; assay type: cell-based; settings: Enterococcus faecium, read-out: Minimum inhibitory concentration

CCCCCCCCCCN(Cc1cccc2ccccc12)C(=O)[C@@H](N)CCCCN [NCK-10]
MIC [1]: ≤ 2 µg/mL
MIC (E. faecalis; E. faecalis B3196): 2 µg/mL (≈ 4.7 µM)
MIC (E. faecalis; E. faecalis B3286): 2 µg/mL (≈ 4.7 µM)
MIC (E. faecalis; E. faecalis B3336): 2 µg/mL (≈ 4.7 µM)
MIC (E. faecalis; E. faecalis SF24397): 2 µg/mL (≈ 4.7 µM)
MIC (E. faecalis; E. faecalis SF28073 (vancomycin-resistant)): 2 µg/mL (≈ 4.7 µM)
Notes (permeability class) (Caco-2 monolayer): Limited permeability
Papp A→B at 2 h ([2]; apical (pH 6.5) to basolateral (pH 7.4)): < 0.01 ×10⁻⁶ cm/s
Papp B→A at 2 h ([2]; basolateral to apical): 3.26 ×10⁻⁶ cm/s
MIC (Clostridium difficile; C. difficile Isolate 1 (NR-13427), read-out: Minimum inhibitory concentration): 2 µg/mL (≈ 4.7 µM)
MIC (Clostridium difficile; C. difficile Isolate 2 (NR-13428), read-out: Minimum inhibitory concentration): 1 µg/mL (≈ 2.35 µM)
MIC (Clostridium difficile; C. difficile Isolate 4 (NR-13430), read-out: Minimum inhibitory concentration): 2 µg/mL (≈ 4.7 µM)
MIC (Clostridium difficile; C. difficile Isolate 6 (NR-13432), read-out: Minimum inhibitory concentration): 1 µg/mL (≈ 2.35 µM)
MIC (Clostridium difficile; C. difficile Isolate 9 (NR-13435), read-out: Minimum inhibitory concentration): 1 µg/mL (≈ 2.35 µM)
MIC (Clostridium difficile; C. difficile Isolate 10 (NR-13436), read-out: Minimum inhibitory concentration): 1 µg/mL (≈ 2.35 µM)
MIC (Clostridium difficile; C. difficile P2 (NR-32883), read-out: Minimum inhibitory concentration): 1 µg/mL (≈ 2.35 µM)
MIC (Clostridium difficile; C. difficile P4 (NR-32889), read-out: Minimum inhibitory concentration): 2 µg/mL (≈ 4.7 µM)
MIC (Clostridium difficile; C. difficile P8 (NR-32888), read-out: Minimum inhibitory concentration): 1 µg/mL (≈ 2.35 µM)
MIC (Clostridium difficile; C. difficile P13 (NR-32891), read-out: Minimum inhibitory concentration): 2 µg/mL (≈ 4.7 µM)
MIC (Clostridium difficile; C. difficile P20 (NR-32896), read-out: Minimum inhibitory concentration): 1 µg/mL (≈ 2.35 µM)
MIC (Clostridium difficile; C. difficile P21 (NR-32897), read-out: Minimum inhibitory concentration): 1 µg/mL (≈ 2.35 µM)
MIC (Clostridium difficile; C. difficile P29 (NR-32903), read-out: Minimum inhibitory concentration): 1 µg/mL (≈ 2.35 µM)
MIC (Clostridium difficile; C. difficile strains P8, P13 and Isolate 10): 1 to 2 µg/mL (≈ 2.35 to 4.7 µM)
MIC (Clostridium difficile; across all tested strains of C. difficile): 0.5 to 2 µg/mL (≈ 1.17 to 4.7 µM)
MIC (Clostridium difficile; most strains of C. difficile tested, read-out: MIC): ≤ 1 µg/mL
MIC (Clostridium difficile; read-out: Minimum inhibitory concentration, C. difficile Isolate 5 (NR-13431)): ≤ 0.5 µg/mL
MIC (Clostridium difficile; read-out: Minimum inhibitory concentration, C. difficile P15 (NR-32892)): ≤ 0.5 µg/mL
MIC (Clostridium difficile; the rest of the C. difficile strains): 1 µg/mL (≈ 2.35 µM)
hemolytic concentration 50 (HC50) (human erythrocytes): 95 µg/mL
cells survived [3]: 60%
MIC (E. faecium; E. faecium E417 (vancomycin-resistant)): < 1 µg/mL
MIC (E. faecium; E. faecium E1071): 2 µg/mL (≈ 4.7 µM)
MIC (E. faecium; E. faecium UAA714): 2 µg/mL (≈ 4.7 µM)

Source: publication PMC7101335, “Aryl-alkyl-lysines: Novel agents for treatment of C. difficile infection” (Scientific Reports, 2020)
